From US20190352341A1, “MODIFIED PEPTIDES AND THEIR USE FOR TREATING SYSTEMIC LUPUS ERYTHEMATOSUS” (IMMUPHARMA FRANCE SA, priority 2018, published 2019)
Where “and” joins values, the source holds several entries; their conditions need not be identical. Equal entries are not always repeated. Numbered stars: 1 amine (or outer) side, 2 acyl side, 3 side chain; on linkers, the order of the positions; unused ones are H or OH. Square brackets hold non-standard residues; d marks the D form. Peptide text beside a SMILES is read from it. ξ: configuration not given here. X1 = CSCC[C@H](NC(=N)[C@H](Cc1c[nH]cn1)N[*:1])C(=O)[*:2]; pS = N[C@@H](COP(=O)(O)O)C(=O)O; Ile(3ξ) = CCC(C)[C@H](N)C(=O)O

Assays:
HSC70 protein = target: T1, HSC70 protein (Bos taurus, UniProt P19120); experiment: Affinity of the peptides for HSC70 protein (BIAcore); type: binding, bovine
T1 construct: purchased Stressgen
Experimental: BIAcore 3000 system (Biacore AB) was used to evaluate the binding of P140 peptides to HSC70 protein (Page et al., 2009, and 2011). Sensor chip CMS, surfactant P20, amine coupling kit containing N-hydroxysuccinimide (NHS) and N-ethyl-N′-dimethylaminopropyl carbodiimide (EDC), 2-(2-pyridinyldithio)ethaneamine (PDEA) and ethanolamine were from Biacore AB. Biosensor assays were performed with HBS-EP buffer as running buffer (10 mM HEPES, 150 mM NaCl, 3 mM EDTA, 0.005% surfactant P20, pH 7.4). The compounds were diluted in the running buffer. The sensor chip surface was regenerated after each experiment by injecting 10 μL of 10 mM HCl. Recombinant bovine HSC70 (Stressgen) was immobilized on flow cells of a CM5 sensor chip through its thiol groups using 35 μL PDEA in 50 mM borate buffer, pH 8.3 on the NHS/EDC-activated matrix. Then, 35 μL of HSC70 (100 μg/mL in formate buffer, pH 4.3) were injected until a response of 13,000 response units (RU) corresponding to 13 ng/mm^2 of HSC70 was immobilized. Twenty μL of a 50 mM cysteine/1 M NaCl solution was used to saturate unoccupied sites on the chip. The direct binding measurement of P140 peptides to HSC70 was carried out at 25° C. with a constant flow rate of 20 μL/min. P140 peptide and analogues were injected in the flux at different concentrations for 3 min, followed by a dissociation phase of 3 min. The kinetic parameters were calculated using the BIAeval 3.1 software on a personal computer. Analysis was performed using the simple 1:1 Langmuir binding model. The specific binding profiles were obtained after subtracting the response signal from the control empty channel and from blank-buffer injection. The fitting to each model was judged by the χ^2 value and randomness of residue distribution compared to the theoretical model.

Balb/c mice = experiment: 31-day HDM-induced asthma model, BAL cells; type: in vivo, mouse; conditions: for B cells / DCs / Eosinophils / Macrophages / Neutrophils / T cells / Total cells: BAL, HDM-sensitized, P140 i.v. 4 mg/kg day 25, individual mice
Experimental: The aim of this study was to evaluate the effect of the P140 phosphopeptide administered systemically (intravenously) in a 31-day model of HDM-induced asthma in mice. The P140 phosphopeptide was solubilized in sterile water (Braun) and 10× concentrate sterile saline was added to adjust osmolarity to 300 mosm. Osmolarity was controlled with a micro osmometer (Löser, type 15) and validated (303 mosm). The P140 phosphopeptide was used in vivo at the dose of 4 mg/kg by intravenous (i.v.) routes. Control animals received equivalent volumes (2 ml/kg) of saline (Table 8).
Nine-week-old male Balb/c mice were sensitized by intranasal (i.n.) administration of HDM extract (Stallergenes): 1 μg in 25 μl saline on days 0, 1, 2, 3, 4, and 10 μg on days 14 and 21. Mice were challenged by i.n. administration of HDM (1 μg) and/or saline on days 28, 29 and 30. Mice were treated by i.v. injection (2 ml/kg) of P140 or solvent on day 25 (see FIG. 14).
BAL was performed after airway responsiveness measurement twenty-four hours after HDM challenge as described (Daubeuf et al. 2012). Mice were anaesthetized IP (Ketamine 150 mg/kg—Xylasine 10 mg/kg). Blood was collected from the heart, centrifuged at 10,000 g for 2 min and serum stored at −20° C.
After semi-excision of the trachea, a plastic cannula was inserted, and airspace washed with 0.5 ml of 0.9% NaCl injected with a 1 ml syringe. This procedure was performed 10 times. The initial concentrated supernatant of the 2 first lavages (volume=2×0.5 ml administered, approximately 0.5 ml recovered) was collected for cytokine measurements. The remaining BAL fluid was centrifuged (300 g for 5 min, 4° C.), and cell pellets pooled. The cell pellet was suspended in 500 μl of 0.9% NaCl and used for total cell counts evaluated on a Muse® Cell Analyser (Millipore). Differential cell counts were assessed by flow cytometry (LSRII® cytometer, BD Bioscience). BAL cells were added with FCblock (0.5 μl, 553142, BD Bioscience) in a black microplate, incubated for 20 min at room temperature. Then, marker antibodies were added: CD11c-FITC (557400, BD bioscience), Gr-1-PeeFluor610 (61-5931-82, eBioscience), F4/80-PE (12-4801-82, eBioscience), CD11b-APC-Cy7 (557657, BD bioscience), CD45-AlexaFluor700 (103128, BioLegend), CD3-BV605 (564009, BD bioscience), CD19-PE-Cy7 (552854, BD bioscience). Antibodies were incubated with BAL cells for 30 min at room temperature before DAPI (5 μl, BD bioscience) addition, and flow cytometry was performed immediately.
All mice were sensitized to HDM on days 0, 1, 2, 3, 4, 14, 21, and challenged either with saline ([…]) or HDM (challenge with allergen). Results are presented as means±SEM. Differences between groups were tested for statistical significance using Student's t test for inflammatory cells and a two-way ANOVA followed by Bonferroni post-test for airway responses.

[1] = BIAcore, 25° C., 1:1 Langmuir model, global fit
[2] = saline-challenged (chronic asthma)
[3] = chronic asthma (saline-challenged), P140 4 mg/kg i.v. day 25
[4] = chronic asthma (saline-challenged), P140 4 mg/kg i.v. day 25, non-significant

T1 sequence (P19120 whole entry): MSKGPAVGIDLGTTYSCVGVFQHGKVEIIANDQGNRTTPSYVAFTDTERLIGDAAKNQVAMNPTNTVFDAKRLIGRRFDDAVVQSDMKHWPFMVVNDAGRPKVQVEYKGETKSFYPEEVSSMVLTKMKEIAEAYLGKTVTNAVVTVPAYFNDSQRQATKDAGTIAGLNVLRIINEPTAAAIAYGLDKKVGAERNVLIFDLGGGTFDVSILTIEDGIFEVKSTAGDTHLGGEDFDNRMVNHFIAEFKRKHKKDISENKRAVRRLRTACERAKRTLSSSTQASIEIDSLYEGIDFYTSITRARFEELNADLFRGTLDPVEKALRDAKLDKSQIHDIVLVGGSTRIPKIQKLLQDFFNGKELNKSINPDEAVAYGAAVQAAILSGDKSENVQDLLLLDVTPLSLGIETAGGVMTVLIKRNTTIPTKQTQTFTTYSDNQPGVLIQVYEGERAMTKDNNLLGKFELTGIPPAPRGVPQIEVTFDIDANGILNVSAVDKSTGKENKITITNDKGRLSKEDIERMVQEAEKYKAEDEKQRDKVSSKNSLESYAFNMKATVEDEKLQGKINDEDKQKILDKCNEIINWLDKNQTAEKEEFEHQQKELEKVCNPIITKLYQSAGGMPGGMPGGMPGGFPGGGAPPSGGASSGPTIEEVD

## CCC(C)[C@H](NC(=O)[C@H](Cc1ccccc1)NC(=O)[C@H](C)NC(=O)[C@H](Cc1ccc(O)cc1)NC(=O)CNC(=O)[C@H](CCCNC(=N)N)NC(=O)[C@@H]1CCCN1C(=O)[C@H](CCCCN)NC(=O)CNC(=O)[C@H](COP(=O)(O)O)NC(=O)[C@H](CCCNC(=N)N)NC(=O)[C@H](CCCCN)NC(=O)[C@H](CO)NC(=O)[C@H](Cc1ccc(O)cc1)NC(=O)[C@@H](NC(=O)[C@H](CCSC)NC(=N)[C@H](Cc1c[nH]cn1)NC(=O)[C@@H](NC(=O)[C@@H](N)CCCNC(=N)N)C(C)CC)C(C)C)C(=O)N[C@@H](CCC(=O)O)C(=O)N[C@@H](Cc1ccc(O)cc1)C(=O)O (some centres unmarked) [Compound P140] (H-R[Ile(3ξ)][X1]VYSKR[pS]GKPRGYAF[Ile(3ξ)]EY-OH)
HSC70 protein; BIAcore, 25° C., 1:1 Langmuir model
  Rmax: 83.3 RU
HSC70 protein; [1]
  KA: 144000 M⁻¹
  kd: 0.00312 s⁻¹
HSC70 protein; BIAcore, 25° C., 1:1 Langmuir model, global fit, read-out: ka
  kon: 450 M⁻¹ s⁻¹
HSC70 protein; peptide 1.56 μM
  RI: 12.1 RU
  Req: 15.3 RU
  kobs: 0.00382 s⁻¹
HSC70 protein; peptide 3.12 μM
  RI: 20.9 RU
  Req: 25.8 RU
  kobs: 0.00452 s⁻¹
HSC70 protein; peptide 6.25 μM
  RI: 33.8 RU
  Req: 39.5 RU
  kobs: 0.00593 s⁻¹
HSC70 protein; peptide 12.5 μM
  RI: 62.5 RU
  Req: 53.6 RU
  kobs: 0.00874 s⁻¹
HSC70 protein; peptide 25 μM
  RI: 118 RU
  Req: 65.2 RU
  kobs: 0.0144 s⁻¹
Balb/c mice; HDM-challenged (HDM + P140)
  B cells: 59 092 and 102 246 and 42 085 and 25 443 and 116 814 and 115 000 and 53 947 and 170 980
  DCs: 1 034 and 2 238 and 1 793 and 242 and 586 and 1 350 and 733 and 1 928
  Eosinophils: 955 824 and 1 404 942 and 636 065 and 342 046 and 1 283 190 and 1 036 803 and 538 210 and 1 010 666
  Macrophages: 58 705 and 118 771 and 314 326 and 125 002 and 34 364 and 38 709 and 29 121 and 73 491
  Neutrophils: 606 700 and 510 027 and 500 004 and 147 616 and 371 317 and 487 119 and 284 503 and 24 426
  T cells: 400 329 and 735 865 and 383 074 and 243 813 and 469 834 and 502 985 and 334 784 and 1 056 303
  Total cells: 2140000 and 2992000 and 2190000 and 1010000 and 2310000 and 2220000 and 1270000 and 2410000
Balb/c mice; [2]
  B cells: 2 297 and 44 668 and 22 879 and 11 101 and 7 660
  DCs: 0 and 484 and 461 and 319 and 160
  Eosinophils: 124 514 and 450 346 and 448 074 and 205 568 and 239 527
  Macrophages: 130 734 and 267 885 and 360 987 and 177 815 and 73 725
  Neutrophils: 2 584 and 35 734 and 23 986 and 34 836 and 2 394
  T cells: 57 711 and 323 623 and 294 011 and 208 439 and 86 810
  Total cells: 448000 and 1390000 and 1510000 and 815000 and 484000
Balb/c mice; HDM-challenged mice, vs solvent group
  Inflammatory cell recruitment in BAL: no effect
Balb/c mice; [3]
  Increase of number of macrophages in BAL vs solvent group: 4.5 fold
  Number of neutrophils in BAL, change vs solvent group: −71%
Balb/c mice; [4]
  Number of B cells in BAL, change vs solvent group: −40%
  Number of eosinophils in BAL, change vs solvent group: −25%
